Read-outs that look alike come from different tables or passages of the source.
Target: T1, HDM2 (Homo sapiens, UniProt Q00987)
T1 construct: Thioredoxin (N); made in house; host or cells: E. coli strain BL21(DE3)Rosetta
Assay: HDM2 FRET assay (inhibition of binding of FITC labeled p53-pocket peptide to HDM2)
Settings: for IC50: read-out: FRET IC50
Procedure, shortened: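 Compounds were tested in 10-point serial dilution against 0.5 nM recombinant HDM2 binding 3 nM fluorescein-labeled p53-pocket peptide. Detection used 0.25 nM terbium cryptate anti-6xHis antibody in PBS buffer containing 0.01% BSA and 0.01% Tween-20.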

[1] = 0.5 nM HDM2 (residues 17 to 125), 3nM peptide, two hour incubation at room temperature

T1 sequence (Q00987 17-125): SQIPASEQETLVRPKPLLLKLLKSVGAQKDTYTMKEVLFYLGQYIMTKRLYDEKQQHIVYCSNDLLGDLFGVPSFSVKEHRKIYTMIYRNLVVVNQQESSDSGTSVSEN

C[C@](CO)(Nc1nc2nc(-c3noc(=O)[nH]3)nc(-c3cccc(Cl)c3)c2n1C[C@H]1CC[C@H](C)CC1)c1ccccc1 [Example 16.5, 3-(6-(3-chlorophenyl)-8-(((S)-1-hydroxy-2-phenylpropan-2-yl)amino)-7-(((trans)-4-methylcyclohexyl)methyl)-7H-purin-2-yl)-1,2,4-oxadiazol-5(4H)-one]
IC50 [1]: 1.59 nM

CC(C)c1ccnc(-c2nc3nc(C(=O)O)nc(-c4ccc(F)cc4)c3n2C[C@H]2CC[C@H](C)CC2)c1 [Example 16.13, 6-(4-fluorophenyl)-7-[(trans-4-methylcyclohexyl)methyl]-8-[4-(1-methylethyl)pyridin-2-yl]-7H-purine-2-carboxylic acid]
IC50 [1]: 401 nM

Cc1csc([C@@H]2COCCN2c2nc3nc(-c4noc(=O)[nH]4)nc(-c4cccc(Cl)c4)c3n2C[C@H]2CC[C@H](C)CC2)n1 [Example 16.120, 3-{6-(3-chlorophenyl)-7-[(trans-4-methylcyclohexyl)methyl]-8-[(3S)-3-(4-methyl-1,3-thiazol-2-yl)morpholin-4-yl]-7H-purin-2-yl}-1,2,4-oxadiazol-5(4H)-one]
IC50 [1]: 9.14 nM

CCN1CCCCC1c1nc2nc(C(=O)O)nc(N[C@H](C)C3CCC3)c2n1Cc1ccc(C(F)(F)F)cc1 (stereo partly drawn) [Example 10.25, 6-(((R)-1-Cyclobutylethyl)amino)-8-(1-ethylpiperidin-2-yl)-7-(4-(trifluoromethyl)benzyl)-7H-purine-2-carboxylic acid]
IC50 (Table 10): 35.4 nM

CC(C)c1ccnc(-c2nc3nc(-c4noc(=O)[nH]4)nc(N[C@H](C)C4CCC4)c3n2CC2CCC(C)(C)CC2)c1 [Example 18.9, (R)-3-(6-((1-cyclobutylethyl)amino)-7-((4,4-dimethylcyclohexyl)methyl)-8-(4-isopropylpyridin-2-yl)-7H-purin-2-yl)-1,2,4-oxadiazol-5(4H)-one]
IC50 (Table 18): 394 nM

C[C@@H](Nc1nc(-c2noc(=O)[nH]2)nc2nc(N3CCOC[C@H]3c3ccccn3)n(C[C@H]3CC[C@H](C)CC3)c12)C1CCC1 [Example 11.142, 3-(6-{[(1R)-1-cyclobutylethyl]amino}-7-[(trans-4-methylcyclohexyl)methyl]-8-[(3R)-3-pyridin-2-ylmorpholin-4-yl]-7H-purin-2-yl)-1,2,4-oxadiazol-5(4H)-one]
IC50 (Table 11): 0.774 nM

COC(c1ccccc1)c1nc2nc(-c3noc(=O)[nH]3)nc(N[C@H](C)C3CCC3)c2n1C[C@H]1CC[C@H](C)CC1 (single isomer, unassigned) [Example 22.20, 3-(6-{[(1R)-1-cyclobutylethyl]amino}-8-[(S or R)-methoxy(phenyl)methyl]-7-[(trans-4-methylcyclohexyl)methyl]-7H-purin-2-yl)-1,2,4-oxadiazol-5(4H)-one]
IC50 (Table 22): 1.5 nM

C[C@@H](Nc1nc(-c2noc(=O)[nH]2)nc2nc(N3CCS(=O)(=O)CC3)n(C[C@H]3CC[C@H](C)CC3)c12)C1CCC1 [Example 11.79, 3-(6-{[(1R)-1-cyclobutylethyl]amino}-8-(1,1-dioxidothiomorpholin-4-yl)-7-[(trans-4-methylcyclohexyl)methyl]-7H-purin-2-yl)-1,2,4-oxadiazol-5(2H)-one]
IC50 (Table 11): 33.3 nM

C[C@@H](Nc1nc(-c2noc(=O)[nH]2)nc2nc(N3CCOC[C@H]3c3ccncc3)n(C[C@H]3CC[C@H](C)CC3)c12)C1CCC1 [Example 11.145, 3-(6-{[(1R)-1-cyclobutylethyl]amino}-7-[(trans-4-methylcyclohexyl)methyl]-8-[(3R)-3-pyridin-4-ylmorpholin-4-yl]-7H-purin-2-yl)-1,2,4-oxadiazol-5(4H)-one]
IC50 (Table 11): 1.31 nM

C[C@@H](Nc1nc(-c2noc(=O)[nH]2)nc2nc(N3CCC(F)(F)CC3)n(C[C@H]3CC[C@H](C)CC3)c12)C1CCC1 [Example 11.80, 3-(6-{[(1R)-1-cyclobutylethyl]amino}-8-(4,4-difluoropiperidin-1-yl)-7-[(trans-4-methylcyclohexyl)methyl]-7H-purin-2-yl)-1,2,4-oxadiazol-5(2H)-one]
IC50 (Table 11): 25.9 nM

C[C@@H](Nc1nc(-c2noc(=O)[nH]2)nc2nc(C3(O)CCOCC3)n(C[C@H]3CC[C@H](C)CC3)c12)C1CCC1 [Example 22.64, 3-(6-{[(1R)-1-cyclobutylethyl]amino}-8-(4-hydroxytetrahydro-2H-pyran-4-yl)-7-[(trans-4-methylcyclohexyl)methyl] -7H-purin-2-yl)-1,2,4-oxadiazol-5(4H)-one]
IC50 (Table 22): 49 nM

C[C@H]1COCCN1c1nc2nc(-c3noc(=O)[nH]3)nc(-c3cccc(Cl)c3)c2n1C[C@H]1CC[C@H](C)CC1 [Example 16.2, 3-(6-(3-chlorophenyl)-7-(((trans)-4-methylcyclohexyl)methyl)-8-((S)-3-methylmorpholino)-7H-purin-2-yl)-1,2,4-oxadiazol-5(4H)-one]
IC50 [1]: 106 nM

CC(c1ccccc1F)c1nc2nc(-c3noc(=O)[nH]3)nc(N[C@H](C)C3CCC3)c2n1C[C@H]1CC[C@H](C)CC1 (single isomer, unassigned) [Example 21.35]
IC50 (Table 21): 2.03 nM

C[C@@H](Nc1nc(-c2noc(=O)[nH]2)nc2nc(C(O)(CO)c3ccccc3)n(C[C@H]3CC[C@H](C)CC3)c12)C1CCC1 (single isomer, unassigned) [Example 22.60]
IC50 (Table 22): 113 nM

C[C@@H](Nc1nc(-c2noc(=O)[nH]2)nc2nc(N3CCCC3Cc3cccnc3)n(Cc3ccc(C(F)(F)F)cc3)c12)C1CCC1 (stereo partly drawn) [Example 9.105, 3-(6-{[(1R)-1-cyclobutylethyl]amino}-8-[2-(pyridin-3-ylmethyl)pyrrolidin-1-yl]-7-[4-(trifluoromethyl)benzyl]-7H-purin-2-yl)-1,2,4-oxadiazol-5(4H)-one]
IC50 (Table 9): 14 nM

C[C@@H](Nc1nc(-c2noc(=O)[nH]2)nc2nc(C3(c4ccccn4)CC3)n(C[C@H]3CC[C@H](C)CC3)c12)C1CCC1 [Example 22.10, 3-[6-{[(1R)-1-cyclobutylethyl]amino}-7-[(trans-4-methylcyclohexyl)methyl]-8-(1-pyridin-2-ylcyclopropyl)-7H-purin-2-yl]-1,2,4-oxadiazol-5(4H)-one]
IC50 (Table 22): 6.29 nM

Cc1cccc(-c2nc3nc(C(=O)O)nc(N(C)CC4CC4(C)C)c3n2Cc2ccc(C(F)(F)F)cc2)c1 (centres unmarked) [Example 6.90, 6-{[(2,2-dimethylcyclopropyl)methyl](methyl)amino}-8-(3-methylphenyl)-7-[4-(trifluoromethyl)benzyl]-7H-purine-2-carboxylic acid]
inhibition at 1 µM (read-out: inh. at 1000 nM (FRET)): 34%

C[C@@H](Nc1nc(-c2noc(=O)[nH]2)nc2nc(NCc3c[nH]nc3-c3ccccc3)n(C[C@H]3CC[C@H](C)CC3)c12)C1CCC1 [Example 11.112, 3-(6-{[(1R)-1-cyclobutylethyl]amino}-7-[(trans-4-methylcyclohexyl)methyl]-8-{[(3-phenyl-1H-pyrazol-4-yl)methyl]amino}-7H-purin-2-yl)-1,2,4-oxadiazol-5(2H)-one]
IC50 (Table 11): 215 nM

Cc1cccc(-c2nc3nc(C(=O)O)nc(N(C)C(C)C4CC4)c3n2Cc2ccc(Cl)cc2)c1 (centres unmarked) [Example 6.11, 7-(4-chlorobenzyl)-6-[(1-cyclopropylethyl)(methyl)amino]-8-(3-methylphenyl)-7H-purine-2-carboxylic acid]
IC50 (Table 6): 1420 nM

Cc1cccc(-c2nc3nc(C(=O)O)nc(N4CCCC4C4CCC4)c3n2Cc2ccc(C(F)(F)F)cc2)c1 (centres unmarked) [Example 6.92, 6-(2-cyclobutylpyrrolidin-1-yl)-8-(3-methylphenyl)-7-[4-(trifluoromethyl)benzyl]-7H-purine-2-carboxylic acid]
IC50 (Table 6): 352 nM

C[C@H]1CC[C@H](Cn2c(N3CCOC[C@H]3c3ccccc3)nc3nc(-c4noc(=O)[nH]4)nc(Oc4ccc(Cl)cn4)c32)CC1 [Example 25.2, 3-{6-[(5-chloropyridin-2-yl)oxy]-7-[(trans-4-methylcyclohexyl)methyl]-8-[(3R)-3-phenylmorpholin-4-yl]-7H-purin-2-yl}-1,2,4-oxadiazol-5(4H)-one]
IC50 (Table 25): 15.4 nM

Cc1cccc(-c2nc3nc(C(=O)O)nc(N[C@@H](C)C(C)C)c3n2Cc2ccc(C(F)(F)F)cc2)c1 [Example 6.49, 6-{[(1S)-1,2-dimethylpropyl]amino}-8-(3-methylphenyl)-7-[4-(trifluoromethyl)benzyl]-7H-purine-2-carboxylic acid]
IC50 (Table 6): 622 nM

C[C@@H](Nc1nc(-c2noc(=O)[nH]2)nc2nc(N3CCOC[C@H]3c3ccccc3)n(Cc3ccc(C(F)(F)F)cc3)c12)C1CCC1 [Example 9.57, 3-(6-{[(1R)-1-cyclobutylethyl]amino}-8-[(3R)-3-phenylmorpholin-4-yl]-7-[4-(trifluoromethyl)benzyl]-7H-purin-2-yl)-1,2,4-oxadiazol-5(4H)-one]
IC50 (Table 9): 1.72 nM

CCC1CCC(Cn2c(-c3cc(C(C)C)ccn3)nc3nc(-c4noc(=O)[nH]4)nc(N[C@H](C)C4CCC4)c32)C1 (stereo partly drawn) [Example 18.4, 3-(6-(((R)-1-cyclobutylethyl)amino)-7-((3-ethylcyclopentyl)methyl) -8-(4-isopropylpyridin-2-yl)-7H-purin-2-yl)-1,2,4-oxadiazol-5(4H)-one]
IC50 (Table 18): 131 nM

COC(C)(c1ccccc1F)c1nc2nc(-c3noc(=O)[nH]3)nc(-c3cncc(Cl)c3)c2n1C[C@H]1CC[C@H](C)CC1 (single isomer, unassigned) [Example 23.49, 3-{6-(5-chloropyridin-3-yl)-8-[1-(2-fluorophenyl)-1-methoxyethyl]-7-[(trans-4-methylcyclohexyl)methyl]-7H-purin-2-yl}-1,2,4-oxadiazol-5(4H)-one]
IC50 (Table 23): 0.888 nM

Cc1cccc(-c2nc3nc(C(=O)O)nc(NC4CCC(C)CC4C)c3n2Cc2ccc(C(F)(F)F)cc2)c1 (centres unmarked) [Example 6.33, 6-[(2,4-dimethylcyclohexyl)amino]-8-(3-methylphenyl)-7-[4-(trifluoromethyl)benzyl]-7H-purine-2-carboxylic acid]
IC50 (Table 6): 305 nM

Reference: patent EP2951180B1, “2,6,7,8 SUBSTITUTED PURINES AS HDM2 INHIBITORS” (Merck Sharp & Dohme Corp., priority 2013, dated 2014)
